The values that follow come from patent US20240368173A1, “TRICYCLIC GPR65 MODULATORS” (PATHIOS THERAPEUTICS LIMITED, priority 2021, published 2024).

The target in the first experiment is human recombinant GPR65 (Homo sapiens, UniProt Q8IYL9). The experiment in a line: Human GPR65 cAMP HTRF antagonist assay. The format is cell-based.
Sequence of human recombinant GPR65 (Q8IYL9 whole entry): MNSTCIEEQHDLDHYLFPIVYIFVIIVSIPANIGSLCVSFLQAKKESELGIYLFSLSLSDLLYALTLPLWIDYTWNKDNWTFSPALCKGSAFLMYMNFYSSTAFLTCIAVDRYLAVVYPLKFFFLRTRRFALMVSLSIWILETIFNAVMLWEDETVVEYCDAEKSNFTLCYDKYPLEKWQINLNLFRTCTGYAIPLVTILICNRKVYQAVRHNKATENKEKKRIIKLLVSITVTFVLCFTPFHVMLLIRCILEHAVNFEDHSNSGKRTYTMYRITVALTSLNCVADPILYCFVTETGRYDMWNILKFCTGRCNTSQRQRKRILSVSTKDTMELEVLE
Settings: not given
Put shortly: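 1321N1 astrocytoma cells stably expressing hrGPR65, with IBMX and EDTA, were preincubated with compound 30 min at room temperature, then acid-activated at assay pH 7.2 (control pH 7.9) for 30 min. cAMP read by HTRF (665/620 nm ratio); IC50 from 4-parameter fit normalised to high/low controls.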
Turning to `O=C(Nc1cc(Cl)c(COc2ccc(F)nc2)cc1F)N1[C@H]2CC[C@@H]1c1n[nH]c(=O)cc1C2` [Compound 293, (6S,9R)-N-(5-Chloro-2-fluoro-4-(((6-fluoropyridin-3-yl)oxy)methyl)phenyl)-3-oxo-3,5,6,7,8,9-hexahydro-2H-6,9-epiminocyclohepta[c]pyridazine-10-carboxamide], the 50% inhibitory concentration (IC50) is less than 500 nM.
The same measure, in the same setting: the result for `O=C(Nc1ccc2nsnc2c1)N1[C@H]2CC[C@@H]1c1n[nH]c(=O)cc1C2` [Compound 186, (6S,9R)—N-(benzo[c][1,2,5]thiadiazol-5-yl)-3-oxo-3,5,6,7,8,9-hexahydro-2H-6,9-epiminocyclohepta[c]pyridazine-10-carboxamide] reads 500 to 5000 nM.
Same read-out and setting: the result for `COc1cnccc1-c1cc(F)c(NC(=O)N2[C@H]3CC[C@@H]2c2ccnc(F)c2C3)cc1Cl` [Compound 297, (5R,8S)-N-(5-Chloro-2-fluoro-4-(3-methoxypyridin-4-yl)phenyl)-1-fluoro-6,7,8,9-tetrahydro-5H-5,8-epiminocyclohepta[c]pyridine-10-carboxamide] reads less than 500 nM; that for `O=C(Nc1cc(Cl)c(-c2ccc(OCC(F)(F)F)nc2)cc1F)N1[C@H]2CC[C@@H]1c1c[nH]c(=O)cc1C2` [Compound 241, (6S,9R)-N-(5-Chloro-2-fluoro-4-(6-(2,2,2-trifluoroethoxy)pyridin-3-yl)phenyl)-3-oxo-3,5,6,7,8,9-hexahydro-2H-6,9-epiminocyclohepta[c]pyridine-10-carboxamide], less than 500 nM.
Still for that read-out and setting: the result for `COCCOc1ccc(-c2cc(F)c(NC(=O)N3[C@H]4CC[C@@H]3c3n[nH]c(=O)cc3C4)cc2Cl)cn1` [Compound 303, (6S,9R)-N-(5-Chloro-2-fluoro-4-(6-(2-methoxyethoxy)pyridin-3-yl)phenyl)-3-oxo-3,5,6,7,8,9-hexahydro-2H-6,9-epiminocyclohepta[c]pyridazine-10-carboxamide] reads less than 500 nM; that for `O=C(Nc1cc(Cl)c(C(F)(F)F)cc1F)N1C2CCC1C(F)c1c2ccnc1F` (mixture of isomers) [Compound 226, (±, 9-endo)-N-(5-chloro-2-fluoro-4-(trifluoromethyl)phenyl)-1,9-difluoro-6,7,8,9-tetrahydro-5H-5,8-epiminocyclohepta[c]pyridine-10-carboxamide], less than 500 nM; that for `COc1cnccc1-c1cc(F)c(NC(=O)N2[C@H]3CC[C@@H]2c2c[nH]c(=O)cc2C3)cc1Cl` [Compound 298, (6S,9R)-N-(5-Chloro-2-fluoro-4-(3-methoxypyridin-4-yl)phenyl)-3-oxo-3,5,6,7,8,9-hexahydro-2H-6,9-epiminocyclohepta[c]pyridine-10-carboxamide], 500 to 5000 nM.
As to `CN1C(=O)Cc2ccc(-c3cc(F)c(NC(=O)N4[C@H]5CC[C@@H]4c4n[nH]c(=O)cc4C5)cc3Cl)cc21` [Compound 163, (6S,9R)-N-(5-Chloro-2-fluoro-4-(1-methyl-2-oxoindolin-6-yl)phenyl)-3-oxo-3,5,6,7,8,9-hexahydro-2H-6,9-epiminocyclohepta[c]pyridazine-10-carboxamide], the IC50 was less than 500 nM.
For `O=C(Nc1cc(Cl)c(C(F)(F)F)cc1F)N1[C@@H]2CC[C@H]1C(F)(F)c1c2ccnc1F` [Compound 227, (5R,8S)-N-(5-Chloro-2-fluoro-4-(trifluoromethyl)phenyl)-1,9,9-trifluoro-6,7,8,9-tetrahydro-5H-5,8-epiminocyclohepta[c]pyridine-10-carboxamide], the IC50 was less than 500 nM.
Same read-out and setting: the result for `CO[C@H]1C[C@@H](Oc2ccc(-c3cc(F)c(NC(=O)N4[C@H]5CC[C@@H]4c4c[nH]c(=O)cc4C5)cc3Cl)cn2)C1` [Compound 321, (6S,9R)-N-(5-Chloro-2-fluoro-4-(6-((1s,3S)-3-methoxycyclobutoxy)pyridin-3-yl)phenyl)-3-oxo-3,5,6,7,8,9-hexahydro-2H-6,9-epiminocyclohepta[c]pyridine-10-carboxamide] reads less than 500 nM; that for `O=C(Nc1cc(Cl)c(-c2ccc3nonc3c2)cc1F)N1[C@H]2CC[C@@H]1c1n[nH]c(=O)cc1C2` [Compound 108, (6S,9R)-N-(4-(Benzo[c][1,2,5]oxadiazol-5-yl)-5-chloro-2-fluorophenyl)-3-oxo-3,5,6,7,8,9-hexahydro-2H-6,9-epiminocyclohepta[c]pyridazine-10-carboxamide], less than 500 nM; that for `O=C(Nc1cc(Cl)c(Cl)cc1F)N1[C@H]2CC[C@@H]1c1c(Cl)cnc(F)c1C2` [Compound 100, (5R,8S)-4-Chloro-N-(4,5-dichloro-2-fluorophenyl)-1-fluoro-6,7,8,9-tetrahydro-5H-5,8-epiminocyclohepta[c]pyridine-10-carboxamide], less than 500 nM.
The same measure, in the same setting: the result for `O=C(Nc1cc(Cl)c(-c2ccc3cncn3c2)cc1F)N1[C@H]2CC[C@@H]1c1n[nH]c(=O)cc1C2` [Compound 197, (6S,9R)-N-(5-Chloro-2-fluoro-4-(imidazo[1,5-a]pyridin-6-yl)phenyl)-3-oxo-3,5,6,7,8,9-hexahydro-2H-6,9-epiminocyclohepta[c]pyridazine-10-carboxamide] reads less than 500 nM; that for `O=C(Nc1cc(Br)c(C(F)(F)F)cc1F)N1C2CCC1c1n[nH]c(=O)cc1C2` (racemic) [Compound 6, (±)-N-(5-Bromo-2-fluoro-4-(trifluoromethyl)phenyl)-3-oxo-3,5,6,7,8,9-hexahydro-2H-6,9-epiminocyclohepta[c]pyridazine-10-carboxamide], less than 500 nM; that for `N#Cc1ccc(-c2cc(F)c(NC(=O)N3[C@H]4CC[C@@H]3c3n[nH]c(=O)cc3C4)cc2Cl)cn1` [Compound 124, (6S,9R)-N-(5-Chloro-4-(6-cyanopyridin-3-yl)-2-fluorophenyl)-3-oxo-3,5,6,7,8,9-hexahydro-2H-6,9-epiminocyclohepta[c]pyridazine-10-carboxamide], less than 500 nM.
Still for that read-out and setting: for `O=C(Nc1cc(Cl)c(-c2ccc(OC3CC3)nc2)cc1F)N1[C@H]2CC[C@@H]1c1c[nH]c(=O)cc1C2` [Compound 222, (6S,9R)-N-(5-Chloro-4-(6-cyclopropoxypyridin-3-yl)-2-fluorophenyl)-3-oxo-3,5,6,7,8,9-hexahydro-2H-6,9-epiminocyclohepta[c]pyridine-10-carboxamide] the value was less than 500 nM; for `O=C(Nc1ccc(C2CC2)c(Cl)c1)N1[C@H]2CC[C@@H]1c1ccnc(F)c1C2` [Compound 59, (5R,8S)-N-(3-Chloro-4-cyclopropylphenyl)-1-fluoro-6,7,8,9-tetrahydro-5H-5,8-epiminocyclohepta[c]pyridine-10-carboxamide], less than 500 nM.
Consider `O=C(Nc1cc(Cl)c(C(F)(F)F)cc1F)N1[C@@H]2CC[C@H]1[C@@H](F)c1c2ccnc1F` [Compound 296, (5R,8S,9S)-N-(5-Chloro-2-fluoro-4-(trifluoromethyl)phenyl)-1,9-difluoro-6,7,8,9-tetrahydro-5H-5,8-epiminocyclohepta[c]pyridine-10-carboxamide], for which the IC50 was less than 500 nM.
Still for that read-out and setting: the result for `O=C1c2c(ccnc2F)C2CCC1N2C(=O)Nc1cc(Cl)c(Cl)cc1F` (racemic) [Compound 155, (±)—N-(4,5-Dichloro-2-fluorophenyl)-1-fluoro-9-oxo-6,7,8,9-tetrahydro-5H-5,8-epiminocyclohepta[c]pyridine-10-carboxamide] reads less than 500 nM.

Still in this experiment, the particulars now being: 1321N1-hrGPR65 cells, cAMP HTRF, assay pH 7.2; read-out: hGPR65 IC50 (Activity of selected compounds according to the invention).
In the case of `NC(=O)c1ccc(-c2cc(F)c(NC(=O)N3[C@H]4CC[C@@H]3c3n[nH]c(=O)cc3C4)cc2Cl)cc1` [Compound 129, (6S,9R)-N-(4′-Carbamoyl-2-chloro-5-fluoro-[1,1′-biphenyl]-4-yl)-3-oxo-3,5,6,7,8,9-hexahydro-2H-6,9-epiminocyclohepta[c]pyridazine-10-carboxamide], the IC50 was 500 to 5000 nM.
The same measure, in the same setting: the result for `CS(=O)(=O)c1ccc(-c2cc(F)c(NC(=O)N3[C@H]4CC[C@@H]3c3n[nH]c(=O)cc3C4)cc2Cl)cn1` [Compound 180, (6S,9R)-N-(5-Chloro-2-fluoro-4-(6-(methylsulfonyl)pyridin-3-yl)phenyl)-3-oxo-3,5,6,7,8,9-hexahydro-2H-6,9-epiminocyclohepta[c]pyridazine-10-carboxamide] reads 500 to 5000 nM.
For the compound `O=C(Nc1ccc(Cl)c(Br)c1)N1[C@@H]2CC[C@H]1c1n[nH]c(=O)cc1C2` [Compound 50, (6R,9S)-N-(3-Bromo-4-chlorophenyl)-3-oxo-3,5,6,7,8,9-hexahydro-2H-6,9-epiminocyclohepta[c]pyridazine-10-carboxamide], the IC50 is greater than 5000 nM.
Same read-out and setting: for `O=C(Nc1cc(Cl)c(-c2ccc3n[nH]nc3c2)cc1F)N1[C@H]2CC[C@@H]1c1n[nH]c(=O)cc1C2` [Compound 140, (6S,9R)-N-(4-(2H-Benzo[d][1,2,3]triazol-5-yl)-5-chloro-2-fluorophenyl)-3-oxo-3,5,6,7,8,9-hexahydro-2H-6,9-epiminocyclohepta[c]pyridazine-10-carboxamide] the value was 500 to 5000 nM.
As for `O=C(Nc1cc(Cl)c(Cl)cc1F)N1[C@H]2CC[C@@H]1c1ccnc(C(F)F)c1C2` [Compound 89, (5R,8S)-N-(4,5-Dichloro-2-fluorophenyl)-1-(difluoromethyl)-6,7,8,9-tetrahydro-5H-5,8-epiminocyclohepta[c]pyridine-10-carboxamide], the IC50 was in the range of 500 to 5000 nM.
Still for that read-out and setting: the result for `O=C(Nc1c(F)cc(Cl)c(Cl)c1F)N1[C@H]2CC[C@@H]1c1n[nH]c(=O)cc1C2` [Compound 308, (6S,9R)-N-(3,4-Dichloro-2,6-difluorophenyl)-3-oxo-3,5,6,7,8,9-hexahydro-2H-6,9-epiminocyclohepta[c]pyridazine-10-carboxamide] reads 500 to 5000 nM; that for `O=C(Nc1cc(-c2cccnc2F)c(-c2cccnc2F)cc1F)N1[C@H]2CC[C@@H]1c1n[nH]c(=O)cc1C2` [Compound 116, (6S,9R)-N-(2-Fluoro-4,5-bis(2-fluoropyridin-3-yl)phenyl)-3-oxo-3,5,6,7,8,9-hexahydro-2H-6,9-epiminocyclohepta[c]pyridazine-10-carboxamide], 500 to 5000 nM.

Usually IC50 stands for the concentration that gives 50% inhibition.
